# Results taken from patent US7033997B2, “Use of natriuretic peptides as antibiotically active substances for the treatment of bacterial infections” (Pharis Biotec GmbH, priority 1999, dated 2006).
# Assays:
# Type in all cases: cell-based
# [1] = test system: N. cinerea; test: Radial diffusion growth inhibition test according to Lehrer et al.; conditions: for growth-inhibiting effect: Gram-negative bacteria
# Excerpt: (§1) The peptides to which this invention relates are members of the family of natriuretic peptides. […] The form of ANP which occurs in the kidneys, urodilatin, was first isolated in 1988 by Forssmann et al. (Schulz-Knappe et al., 1988). […] A useful test for recognizing antibiotic activity is the growth inhibition test of Lehrer et al. (Lehrer et al. J. Immun. Methods, Vol. 137, p. 167, 1991).
# (§2) Radial diffusion growth inhibition test with Streptococcus carnosus and N. cinerea according to Lehrer et al. (Lehrer et al., J. Immun. Methods, Vol. 137, p. 167, 1991).
# (§3) The purity and identity of the peptides is determined by mass spectrometry (quadrupole electrospray mass spectrometry, Sciex API 111, Perkin Elmer) and sequencing in a gas-phase sequencer (model 470, Applied Biosystems, Weiter-stadt) and checked by capillary zone electrophoresis. The biological activity is verified by the growth inhibition test.
# [2] = test system: Streptococcus carnosus; test: as above; conditions: for growth-inhibiting effect: Gram-positive bacteria
# Excerpt: as §1, §2, §3
# [3] = test system: B. subtilis; test: Growth inhibition test; conditions: Gram-positive bacteria
# Protocol: as §1, §3
# [4] = test system: E. coli; test: Growth inhibition test; conditions: Gram-negative bacteria
# Protocol: as §1, §3
# [5] = test system: M. luteus; test: Growth inhibition test; conditions: Gram-positive bacteria
# Protocol: as §1, §3
# [6] = test system: P. fluorescens; test: Growth inhibition test; conditions: Gram-negative bacteria
# Protocol: as §1, §3
# [7] = test system: S. cerevisiae; test: Growth inhibition test; conditions: yeast S. cerevisiae
# Protocol: as §1, §3
# [8] = after application of 1 μg, Streptococcus carnosus
Compound,growth-inhibiting effect [1],inhibition halos ([1]; after application of 1 μg),growth-inhibiting effect ([2]; S. carnosus),"inhibition halos [2, 8]",growth-inhibiting effect [3],growth-inhibiting effect [4],growth-inhibiting effect [5],growth-inhibiting effect [6],growth-inhibiting effect [7],inhibition halos ([1]; after application of 11 μg),"inhibition halos ([2]; after application of 7 μg, S. carnosus)"
CC[C@H](C)[C@@H]1NC(=O)[C@H](CCCNC(=N)N)NC(=O)[C@H](CC(=O)O)NC(=O)[C@H](CCSC)NC(=O)[C@H](CCCNC(=N)N)NC(=O)CNC(=O)CNC(=O)[C@H](Cc2ccccc2)NC(=O)[C@@H](NC(=O)[C@H](CO)NC(=O)[C@H](CO)NC(=O)[C@H](CCCNC(=N)N)NC(=O)[C@H](CCCNC(=N)N)NC(=O)[C@H](CC(C)C)NC(=O)[C@@H](N)CO)CSSC[C@@H](C(=O)N[C@@H](CC(N)=O)C(=O)N[C@@H](CO)C(=O)N[C@@H](Cc2ccccc2)C(=O)N[C@@H](CCCNC(=N)N)C(=O)N[C@@H](Cc2ccc(O)cc2)C(=O)O)NC(=O)CNC(=O)[C@H](CC(C)C)NC(=O)CNC(=O)[C@H](CO)NC(=O)[C@H](CCC(N)=O)NC(=O)[C@H](C)NC(=O)CNC1=O [ANP],growth-inhibiting effect,inhibition halos can be observed,growth-inhibiting effect,inhibition halos can be observed,growth-inhibiting effect,growth-inhibiting effect,growth-inhibiting effect,growth-inhibiting effect,growth-inhibiting effect,,
Gly-Leu-Ser-Lys-Gly-Cys-Phe-Gly-Leu-Lys-Leu-Asp-Arg-Ile-Gly-Ser-Met-Ser-Gly-Leu-Gly-Cys (GLSKGCFGLKLDRIGSMSGLGC; listed as Homo sapiens) [CNP],,,,,,,,,,inhibition halos can be observed,inhibition halos can be observed
Thr-Ala-Pro-Arg-Ser-Leu-Arg-Arg-Ser-Ser-Cys-Phe-Gly-Gly-Arg-Met-Asp-Arg-Jle-Gly-Ala-Gln-Ser-Gly-Leu-Gly-Cys-Asn-Ser-Phe-Arg-Tyr [urodilatin],growth-inhibiting effect,inhibition halos can be observed,growth-inhibiting effect,inhibition halos can be observed,growth-inhibiting effect,growth-inhibiting effect,growth-inhibiting effect,growth-inhibiting effect,growth-inhibiting effect,,
